Read-outs that look alike come from different tables or passages of the source.
How the values were obtained:
[1] = Metabolites of cold authentic FP-CIT in normal rats (LC-MS); format: in vivo, Sprague–Dawley rats; conditions: FP-CIT 5 mg/kg i.v.; for presence in brain samples: 30 and 60 min
Experimental: Male Sprague–Dawley Rats (group III) were anesthetized with 2% isoflurane in oxygen, and cold authentic FP-CIT dissolved in 10% DMSO normal saline diluent was intravenously injected via the tail vein (5 mg/kg; 5 mg/mL). Rats were sacrificed at different time points (30 and 60 min after injection, n = 3 each), and the tissues of interest (i.e., blood, urine, brain, and liver) were harvested. One rat injected with 10% DMSO in normal saline was used as the negative control. Plasma obtained from the blood samples was centrifuged at 3000 rpm for 10 min at room temperature. Urine samples were collected from the urinary bladder using a 1 mL syringe at specific time points. After adding ice-cold acetonitrile at a volume of onefold (v/v) for each plasma and urine sample obtained, the samples were centrifuged at 12,000 rpm for 5 min at 4 °C and the supernatant was collected. The brain and liver tissues were separately homogenized in 1 mL of a 0.9% normal saline/acetonitrile (95:5 v/v) solution using a homogenizer. The obtained homogenate was deproteinized using 500 μL of acetonitrile and centrifuged (4 °C, 12,000 rpm, 10 min), followed by collecting the supernatant. The supernatants obtained by centrifuging the blood, brain, liver, and urine samples were filtered with 2 mL of acetonitrile using a 0.45 μm UHP syringe filter to remove residues. Compounds identified as FP-CIT metabolites in a previous study were modified to a cold-fluorine-authentic form and used as positive controls. The filtered samples were analyzed qualitatively and quantitatively based on the positive controls.
The ISQEM LC–MS system (Thermo Fisher, Waltham, MA, USA) equipped with OptimaPak C18 (5 μm, 4.6 × 250 mm) column was used. The HPLCf elution condition (A: 0.1% (v/v) trifluoroacetic acid, B: acetonitrile) was as follows: a gradient elution; 90% (A), 10% (B) (0 min) → 40% (A), 60% (B) (35 min); and a flow rate of 1 mL/min. The injection volume of each sample was 20 μL. Electrospray ionization mass was scanned in both the positive and negative modes. Mass range (amu) was 100–2000; dwell times, 0.1 s; source voltage, 3000 V (positive) and − 2000 V (negative); and vaporizer temperature, 550 °C; nitrogen was used as nebulizing gas. For analysis, the masses of [M + H]^+ of cold authentic FP-CIT administrated and metabolites were extracted from the obtained total ion chromatogram, and Gaussian distribution curve fitting was conducted.

[2] = cited from earlier work
dopamine transporter [3] = conditions: PET scanning; cited from earlier work
dopamine transporter [4] = test system: dopamine transporter; parameters: method as in PMID 30028339, PMID 23758882, PMID 15908232; conditions: cited from earlier work
[5] = parameters: method as in earlier work; conditions: cited from earlier work
serotonin transporter = conditions: cited from earlier work

Question: With `COC(=O)C1C(c2ccc(I)cc2)CC2CCC1N2CCCF` (stereo not drawn) [FP-CIT, N-(3-fluoropropyl)-2β-carboxymethoxy-3β-(4-iodophenyl) nortropane] as the molecule, how does the “metabolite distribution in blood, brain, liver, urine EIC” value ([1]; 30 min after administration) read?
Answer: Its value is “mainly observed in all the EIC of metabolic pathways”.

Question: Which “amount relative to other forms” value [2] does the source give for `O=C(O)C1C(c2ccc(I)cc2)CC2CCC1N2CCCF` (centres unmarked) [FP-CIT-acid] here?
Answer: Its value is less than 0.3%.

Question: What about the “blood–brain barrier penetration” value [2] of the same molecule?
Answer: Its value is “cannot penetrate the blood–brain barrier”.

Question: What about the “presence in brain samples” value [1] of the same molecule?
Answer: The value was “Neither FP-CIT-acid nor nor-β-CIT-acid was observed in the brain samples”.

Question: And the “metabolite distribution, urine” value ([1]; 30 min after administration)?
Answer: The value was “most distinctly observed in the urine samples”.

Question: With `[11CH3]OC(=O)C1C(c2ccc(I)cc2)CC2CCC1N2CCCF` (centres unmarked) [[^11C]FP-CIT] as the molecule, how does the “time of transient equilibrium in time activity curves (specific binding to the striatum)” value (dopamine transporter [3]) read?
Answer: The value was 70 to 90 min.

Question: Which “correlation (R) with TH IHC” value (dopamine transporter [4]) does the source give for `CN1[C@H]2CC[C@@H]1[C@@H](CN(CC[S-])CC[N-]CC[S-])[C@@H](c1ccc(Cl)cc1)C2.[O]=[99Tc+4]` [[^99mTc]TRODAT-1] here?
Answer: The value was 0.899.

Question: Which “correlation (R) with dopamine transporter IHC” value (dopamine transporter [4]) does the source give for `COC(=O)[C@H]1[C@@H](c2ccc([123I])cc2)C[C@@H]2CC[C@H]1N2CCCF` [[^123I]FP-CIT] here?
Answer: The value was 0.88.

Question: What about the injected dose excreted ([5]; till 6 h post-injection, male Wistar rats) of the same molecule?
Answer: Its injected dose excreted is “approximately 10%”.

Question: What about the injected dose excreted ([5]; until 72 h, animals) of the same molecule?
Answer: Its injected dose excreted is “more than 80%”.

Question: For `COC(=O)[C@H]1C(c2ccc([123I])cc2)C[C@@H]2CC[C@H]1N2C` (stereo partly drawn) [[^123I]β-CIT], which “correlation (R) with TH IHC” value (dopamine transporter [4]) is on record?
Answer: Its value is 0.911.

Question: And the “correlation (R) with dopamine transporter IHC” value (dopamine transporter [4])?
Answer: Its value is 0.936.

Question: Which results are given for `O=C(O)C1C2CCC(CC1c1ccc(I)cc1)N2` (stereo not drawn) [nor-β-CIT-acid]?
Answer: blood–brain barrier penetration ([2]; low-lipophilic metabolite of [^123I]FP-CIT): difficulty penetrating the BBB; presence in brain samples [1]: Neither FP-CIT-acid nor nor-β-CIT-acid was observed in the brain samples; metabolite distribution ([1]; 60 min post-injection): appeared in the blood, urine, and liver samples

Question: What does the source list for `COC(=O)C1C2CCC(CC1c1ccc(I)cc1)N2` (stereo not drawn) [nor-β-CIT]?
Answer: affinity for serotonin transporter relative to FP-CIT (serotonin transporter): higher affinity for serotonin transporter than FP-CIT; metabolite distribution in blood, brain, liver, urine EIC ([1]; 30 min after administration): mainly observed in all the EIC of metabolic pathways

Reference: PMC11222350, “Preclinical evaluation of [^18F]FP-CIT, the radiotracer targeting dopamine transporter for diagnosing Parkinson’s disease: pharmacokinetic and efficacy analysis” (EJNMMI Research, 2024)
